From PubChem BioAssay AID2060908 (Molecular Pharmacology Branch, DTP, NCI, 2025)

Test system: 186277-243-T-J2-PDC complex spheroids, viability
Assay: Anticancer human tumor 186277-243-T-J2-PDC patient-derived colon adenocarcinoma cell line growth inhibition [RAS]
Conditions: for IC50: curve of first compound; for viability, T/C: stronger effect = lower value
Summary of the method: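 Tumour cells grown as complex spheroids with HUVEC endothelial cells and mesenchymal stem cells, treated with RAS pathway inhibitor combinations. Each agent spans half-log steps from near clinical Cmax, or 10 microM where Cmax is unknown.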

[1] = second compound 0.00316 µM, first compound 0.0316 µM
[2] = second compound 0.00316 µM, first compound 0.1 µM
[3] = second compound 0.00316 µM, first compound 0.316 µM
[4] = second compound 0.00316 µM, first compound 1 µM
[5] = second compound 0.01 µM, first compound 0.0316 µM
[6] = second compound 0.01 µM, first compound 0.1 µM
[7] = second compound 0.01 µM, first compound 0.316 µM
[8] = second compound 0.01 µM, first compound 1 µM
[9] = second compound 0.0316 µM, first compound 0.0316 µM
[10] = second compound 0.0316 µM, first compound 0.1 µM
[11] = second compound 0.0316 µM, first compound 0.316 µM
[12] = second compound 0.0316 µM, first compound 1 µM
[13] = second compound 0.1 µM, first compound 0.0316 µM
[14] = second compound 0.1 µM, first compound 0.1 µM
[15] = second compound 0.1 µM, first compound 0.316 µM
[16] = second compound 0.1 µM, first compound 1 µM
[17] = second compound 0.316 µM, first compound 0.0316 µM
[18] = second compound 0.316 µM, first compound 0.1 µM
[19] = second compound 0.316 µM, first compound 0.316 µM
[20] = second compound 0.316 µM, first compound 1 µM
[21] = second compound 1 µM, first compound 0.0316 µM
[22] = second compound 1 µM, first compound 0.1 µM
[23] = second compound 1 µM, first compound 0.316 µM
[24] = second compound 1 µM, first compound 1 µM
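Note: spheroids exposed to compounds for 7 days before viability read.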

SMILES: CC(Nc1ccc2c(c1)OCCn1cc(N3C(=O)OCC3C(F)F)nc1-2)C(N)=O (centres undefined) + C=CC(=O)N1CCN(c2nc(OCC3CCCN3C)nc3c(F)c(-c4nc(N)cc(C)c4C(F)(F)F)c(Cl)cc23)C(C)C1
- IC50 (second compound 0.00316 µM): 509 nM
- IC50 (second compound 0.01 µM): 460 nM
- IC50 (second compound 0.0316 µM): 771 nM
- IC50 (second compound 0.1 µM): 1020 nM
- IC50 (second compound 0.316 µM): 453 nM
- IC50 (second compound 1 µM): 344 nM
- viability, T/C [1]: 109%
- viability, T/C [2]: 108%
- viability, T/C [3]: 58.9%
- viability, T/C [4]: 40.8%
- viability, T/C (second compound 0.00316 µM, first compound 3.16 µM): 34.7%
- viability, T/C (second compound 0.00316 µM, first compound 10 µM): 35%
- viability, T/C [5]: 102%
- viability, T/C [6]: 109%
- viability, T/C [7]: 57.3%
- viability, T/C [8]: 42%
- viability, T/C (second compound 0.01 µM, first compound 3.16 µM): 36.7%
- viability, T/C (second compound 0.01 µM, first compound 10 µM): 25.3%
- viability, T/C [9]: 90.2%
- viability, T/C [10]: 105%
- viability, T/C [11]: 70.3%
- viability, T/C [12]: 47.1%
- viability, T/C (second compound 0.0316 µM, first compound 3.16 µM): 37.4%
- viability, T/C (second compound 0.0316 µM, first compound 10 µM): 33.5%
- viability, T/C [13]: 82.8%
- viability, T/C [14]: 99.9%
- viability, T/C [15]: 72.8%
- viability, T/C [16]: 50.5%
- viability, T/C (second compound 0.1 µM, first compound 3.16 µM): 42.8%
- viability, T/C (second compound 0.1 µM, first compound 10 µM): 31.2%
- viability, T/C [17]: 105%
- viability, T/C [18]: 103%
- viability, T/C [19]: 55.3%
- viability, T/C [20]: 42.5%
- viability, T/C (second compound 0.316 µM, first compound 3.16 µM): 36.1%
- viability, T/C (second compound 0.316 µM, first compound 10 µM): 33.7%
- viability, T/C [21]: 93.3%
- viability, T/C [22]: 98.5%
- viability, T/C [23]: 51%
- viability, T/C [24]: 44.1%
- viability, T/C (second compound 1 µM, first compound 3.16 µM): 41.5%
- viability, T/C (second compound 1 µM, first compound 10 µM): 28.3%

SMILES: O=C(c1ccc(F)c(F)c1Nc1ccc(I)cc1F)N1CC(O)([C@@H]2CCCCN2)C1 + C=CC(=O)N1CCN(c2nc(OCC3CCCN3C)nc3c(F)c(-c4nc(N)cc(C)c4C(F)(F)F)c(Cl)cc23)C(C)C1
- IC50 (second compound 0.00316 µM): 52.1 nM
- IC50 (second compound 0.01 µM): 63.7 nM
- IC50 (second compound 0.0316 µM): 66.9 nM
- IC50 (second compound 0.1 µM): 74.5 nM
- IC50 (second compound 0.316 µM): 73.4 nM
- IC50 (second compound 1 µM): 86.1 nM
- viability, T/C (second compound 0.00316 µM, first compound 0.00316 µM): 104%
- viability, T/C (second compound 0.00316 µM, first compound 0.01 µM): 99.3%
- viability, T/C [1]: 59.9%
- viability, T/C [2]: 34%
- viability, T/C [3]: 12%
- viability, T/C [4]: 5.96%
- viability, T/C (second compound 0.01 µM, first compound 0.00316 µM): 93.8%
- viability, T/C (second compound 0.01 µM, first compound 0.01 µM): 110%
- viability, T/C [5]: 79.2%
- viability, T/C [6]: 30.4%
- viability, T/C [7]: 11.9%
- viability, T/C [8]: 5.44%
- viability, T/C (second compound 0.0316 µM, first compound 0.00316 µM): 99.3%
- viability, T/C (second compound 0.0316 µM, first compound 0.01 µM): 87.8%
- viability, T/C [9]: 78.1%
- viability, T/C [10]: 35%
- viability, T/C [11]: 12.1%
- viability, T/C [12]: 5.54%
- viability, T/C (second compound 0.1 µM, first compound 0.00316 µM): 75.7%
- viability, T/C (second compound 0.1 µM, first compound 0.01 µM): 98%
- viability, T/C [13]: 70.5%
- viability, T/C [14]: 42.8%
- viability, T/C [15]: 11.4%
- viability, T/C [16]: 5.74%
- viability, T/C (second compound 0.316 µM, first compound 0.00316 µM): 78.8%
- viability, T/C (second compound 0.316 µM, first compound 0.01 µM): 92.2%
- viability, T/C [17]: 93.8%
- viability, T/C [18]: 35.9%
- viability, T/C [19]: 13.3%
- viability, T/C [20]: 7.18%
- viability, T/C (second compound 1 µM, first compound 0.00316 µM): 98.1%
- viability, T/C (second compound 1 µM, first compound 0.01 µM): 96.8%
- viability, T/C [21]: 82.6%
- viability, T/C [22]: 45.6%
- viability, T/C [23]: 13.2%
- viability, T/C [24]: 6.57%
